Test results as given in publication PMC11374718, “Unlocking opioid neuropeptide dynamics with genetically encoded biosensors” (Nature Neuroscience, 2024).
Where two headings read alike, the source gives them in different places. Where no end group is shown, it is not given here.

How the values were obtained:
[1] = target: µLight (Homo sapiens, UniProt P35372, INS270[…]/V175Q); format: cell-based; conditions: for EC50: read-out: μLight EC50
[2] = target: T1, κLight1.3 (Homo sapiens, UniProt P41145, INS261[…]/L259S/S262L/V164K); format: cell-based; conditions: for EC50: read-out: κLight EC50
T1 construct: TlcnC (telencephalin) tag (C); PRC tag (C); ER2 (ER export motif FCYENEV) tag (C); expressed in transfected cells; dissociated hippocampal neurons (AAV9-hSyn); mouse brain (AAV9-hSyn)
Target sequence in this assay (P41145 with tags, fused parts or gaps V164K/L259S/INS261[withheld]/S262L): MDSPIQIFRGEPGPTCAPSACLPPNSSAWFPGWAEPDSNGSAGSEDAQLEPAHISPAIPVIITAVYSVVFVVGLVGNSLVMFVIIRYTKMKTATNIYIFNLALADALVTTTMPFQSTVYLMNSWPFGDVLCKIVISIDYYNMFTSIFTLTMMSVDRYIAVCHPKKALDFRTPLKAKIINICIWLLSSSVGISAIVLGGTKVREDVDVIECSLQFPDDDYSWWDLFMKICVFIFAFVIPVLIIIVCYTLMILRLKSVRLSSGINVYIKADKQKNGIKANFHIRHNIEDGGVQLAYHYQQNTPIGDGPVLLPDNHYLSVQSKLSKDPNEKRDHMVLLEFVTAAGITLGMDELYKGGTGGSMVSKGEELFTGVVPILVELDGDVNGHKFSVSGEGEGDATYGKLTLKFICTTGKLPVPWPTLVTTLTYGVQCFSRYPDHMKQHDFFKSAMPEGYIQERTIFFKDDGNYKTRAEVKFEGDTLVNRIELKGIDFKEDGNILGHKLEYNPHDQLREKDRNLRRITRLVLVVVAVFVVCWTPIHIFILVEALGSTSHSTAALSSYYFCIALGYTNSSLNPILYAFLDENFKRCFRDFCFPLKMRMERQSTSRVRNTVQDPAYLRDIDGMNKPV

[3] = target: µLight (Homo sapiens, UniProt P35372, V175Q); assay: biochemical; format: binding
[4] = tested on: δLight; conditions: read-out: δLight EC50 in neurons; dissociated hippocampal neurons
[5] = tested on: κLight1.3a; assay: in situ titration in dissociated hippocampal neurons expressing κLight1.3a; format: cell-based, human
[6] = target: T1, κLight1.3; format: cell-based; conditions: read-out: κLight1.3 EC50 in neurons; dissociated hippocampal neurons
[7] = target: T2, κLight (Homo sapiens, UniProt P41145, INS261[…]/L259S/S262L/V164K); assay: [3H]diprenorphine displacement binding, κLight cell membranes; conditions: read-out: κLight IC50
T2 construct: TlcnC (telencephalin) tag (C); PRC tag (C); ER2 (ER export motif FCYENEV) tag (C); expressed in transfected cells; dissociated hippocampal neurons (AAV9-hSyn); mouse brain (AAV9-hSyn)

[8] = tested on: κLight1.3a; assay: two-photon imaging of κLight1.3a response to electrical stimulation in hippocampal CA3 slices; parameters: species or system mouse; conditions: antagonist 100 µM, n = 3 slices
[9] = target: T1, κLight1.3; format: cell-based
Target sequence in this assay (P41145 with tags, fused parts or gaps V164K/L259S/INS261[withheld]/S262L): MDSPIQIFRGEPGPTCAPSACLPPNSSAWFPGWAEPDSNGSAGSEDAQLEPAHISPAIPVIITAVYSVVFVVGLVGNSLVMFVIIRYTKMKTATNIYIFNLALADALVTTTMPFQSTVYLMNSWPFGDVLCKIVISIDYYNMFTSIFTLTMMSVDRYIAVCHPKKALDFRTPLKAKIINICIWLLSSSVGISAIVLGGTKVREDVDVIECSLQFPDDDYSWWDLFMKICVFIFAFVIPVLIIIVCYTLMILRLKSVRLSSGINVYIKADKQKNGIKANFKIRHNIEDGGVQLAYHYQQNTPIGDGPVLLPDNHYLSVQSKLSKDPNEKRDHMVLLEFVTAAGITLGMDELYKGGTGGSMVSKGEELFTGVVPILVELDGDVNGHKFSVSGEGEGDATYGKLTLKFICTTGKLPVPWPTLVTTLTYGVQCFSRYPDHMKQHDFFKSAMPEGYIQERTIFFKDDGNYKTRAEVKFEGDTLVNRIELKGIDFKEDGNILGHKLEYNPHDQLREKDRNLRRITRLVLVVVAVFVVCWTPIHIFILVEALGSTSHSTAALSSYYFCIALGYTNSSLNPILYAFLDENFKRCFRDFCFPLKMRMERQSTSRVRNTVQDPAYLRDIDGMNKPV

[10] = target: T3, δLight (Homo sapiens, UniProt P41143, G248L/INS249[…]/V154K); format: in vivo, mouse
T3 construct: PRC tag (C); ER2 (ER export motif) tag (C); expressed in transfected cells; dissociated hippocampal neurons (AAV9-hSyn); mouse brain (AAV9-hSyn)
Description: (§1) We next determined if κLight and δLight can be activated by systemic administration of exogenous small-molecule drugs in vivo. We injected AAV9-hSyn encoding κLight1.3 or δLight, and κLight0 or δLight0 in the arcuate nucleus (ARC) of the hypothalamus, hippocampal CA3 region[43] and NAc[30], areas abundant in κOR and δOR. We next implanted fiber-optic ferrules above each injection site and recorded the fluorescence of κLight and δLight upon intraperitoneal (i.p.) injection of opioid receptor-selective ligands using fiber photometry (Fig. 4a and Extended Data Fig. 4h–j).
For fiber photometry studies, recordings were obtained throughout the entirety of drug injection, Pavlovian conditioning and head-fixed sessions as previously described. Before recording, an optic fiber was attached to the implanted fiber using a ferrule sleeve (Doric, ZR_2.5). Two LEDs were used to excite κLight1.3. […] Laser intensity for the 470-nm- and 405-nm-wavelength bands were measured at the tip of the optic fiber and adjusted to 50 μW before each day of recording. κLight1.3 fluorescence traveled through the same optic fiber before being bandpass filtered (525 ± 25 nm, Doric, FMC4), transduced by a femtowatt silicon photoreceiver (Newport, 2151) and recorded by a real-time processor (TDT, RZ5P). […]
Custom MATLAB scripts were developed for analyzing fiber photometry data in the context of mouse behavior. […] After baseline correction, the photometry trace was z-scored relative to the mean and standard deviation of the session. The post-processed fiber photometry signal was analyzed in the context of animal behavior during Pavlovian conditioning and operant task performance. […] Peak, mean and minimum fluorescence was determined during predetermined time windows for the injection period (0–5 min), reward period (5–20 s), release period (0–20 s) or artifact period (0–20 s) subtracted from peak, mean or minimum fluorescence values in a baseline window (−5 to 0 s). […]

[11] = target: T4, δLight0 (Homo sapiens, UniProt P41143, D128N/G248L/INS249[…]/V154K); assay: in vivo fiber photometry of control sensor δLight0 upon i.p. drug injection; parameters: species or system mouse; conditions: 5 mg/kg SNC162, n = 4 animals
T4 construct: ER2 tag (ER export motif FCYENEV) (C); PRC (proximal restriction and clustering) tag, after a GS linker (C); expressed in transfected cells; host or cells: mouse brain neurons (ARC; NAc) transduced in vivo with AAV-hSyn-δLight0
Description: as §1
For fiber photometry studies, recordings were obtained throughout the entirety of drug injection, Pavlovian conditioning and head-fixed sessions as previously described. […] Laser intensity for the 470-nm- and 405-nm-wavelength bands were measured at the tip of the optic fiber and adjusted to 50 μW before each day of recording. κLight1.3 fluorescence traveled through the same optic fiber before being bandpass filtered (525 ± 25 nm, Doric, FMC4), transduced by a femtowatt silicon photoreceiver (Newport, 2151) and recorded by a real-time processor (TDT, RZ5P). […]
Custom MATLAB scripts were developed for analyzing fiber photometry data in the context of mouse behavior. […] After baseline correction, the photometry trace was z-scored relative to the mean and standard deviation of the session. […]

[12] = tested on: δLight; conditions: neuron cultures; 100 μM ME then 1 mM naloxone

Chain of µLight (Homo sapiens, UniProt P35372, V175Q) (P35372 whole entry V175Q, looked up): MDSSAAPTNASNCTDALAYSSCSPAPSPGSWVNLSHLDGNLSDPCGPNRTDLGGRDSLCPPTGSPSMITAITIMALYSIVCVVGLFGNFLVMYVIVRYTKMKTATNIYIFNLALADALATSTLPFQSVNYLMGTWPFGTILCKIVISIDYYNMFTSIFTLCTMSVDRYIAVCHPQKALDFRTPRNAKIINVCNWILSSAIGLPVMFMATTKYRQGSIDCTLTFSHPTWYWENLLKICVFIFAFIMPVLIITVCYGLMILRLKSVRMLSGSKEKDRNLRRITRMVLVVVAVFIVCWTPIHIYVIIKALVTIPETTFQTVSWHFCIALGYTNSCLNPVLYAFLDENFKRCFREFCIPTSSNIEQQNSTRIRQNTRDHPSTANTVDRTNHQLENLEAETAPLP
T3 sequence (P41143 with tags, fused parts or gaps, stated change not applied): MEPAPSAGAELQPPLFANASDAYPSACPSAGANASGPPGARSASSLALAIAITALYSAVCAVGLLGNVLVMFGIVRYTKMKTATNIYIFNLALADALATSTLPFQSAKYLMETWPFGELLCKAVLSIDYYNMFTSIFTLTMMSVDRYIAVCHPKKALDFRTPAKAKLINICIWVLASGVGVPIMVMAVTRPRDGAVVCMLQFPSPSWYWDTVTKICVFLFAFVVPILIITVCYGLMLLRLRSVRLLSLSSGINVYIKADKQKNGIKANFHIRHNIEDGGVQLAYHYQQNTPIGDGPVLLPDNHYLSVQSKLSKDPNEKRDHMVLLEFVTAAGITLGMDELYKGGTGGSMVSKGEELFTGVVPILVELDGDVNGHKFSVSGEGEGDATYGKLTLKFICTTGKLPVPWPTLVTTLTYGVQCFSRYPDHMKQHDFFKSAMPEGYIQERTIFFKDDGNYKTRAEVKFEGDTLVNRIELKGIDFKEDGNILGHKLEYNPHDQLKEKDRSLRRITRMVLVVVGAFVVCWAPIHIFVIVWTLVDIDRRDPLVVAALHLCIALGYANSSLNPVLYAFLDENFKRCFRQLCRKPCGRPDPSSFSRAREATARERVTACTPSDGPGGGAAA
Chain of µLight (Homo sapiens, UniProt P35372, INS270[…]/V175Q) (P35372 with tags, fused parts or gaps V175Q/INS270[withheld]): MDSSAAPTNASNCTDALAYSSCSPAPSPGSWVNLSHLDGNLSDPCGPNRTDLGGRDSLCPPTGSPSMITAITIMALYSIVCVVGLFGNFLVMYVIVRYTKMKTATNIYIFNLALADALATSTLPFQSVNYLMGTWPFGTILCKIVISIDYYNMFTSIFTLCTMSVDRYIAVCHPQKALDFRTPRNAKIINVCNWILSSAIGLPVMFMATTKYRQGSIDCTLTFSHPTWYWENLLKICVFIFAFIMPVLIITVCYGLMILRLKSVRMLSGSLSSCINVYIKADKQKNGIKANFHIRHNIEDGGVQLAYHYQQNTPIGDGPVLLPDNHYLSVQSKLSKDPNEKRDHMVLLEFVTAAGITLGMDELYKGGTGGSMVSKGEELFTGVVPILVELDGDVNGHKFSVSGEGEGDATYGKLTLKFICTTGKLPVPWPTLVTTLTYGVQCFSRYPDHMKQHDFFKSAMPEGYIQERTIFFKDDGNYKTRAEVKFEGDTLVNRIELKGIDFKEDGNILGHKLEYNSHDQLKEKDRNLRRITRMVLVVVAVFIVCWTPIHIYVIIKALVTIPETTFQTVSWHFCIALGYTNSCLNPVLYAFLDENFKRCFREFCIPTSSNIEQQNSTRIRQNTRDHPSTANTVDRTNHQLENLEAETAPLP
T4 sequence (P41143 with tags, fused parts or gaps, stated change not applied): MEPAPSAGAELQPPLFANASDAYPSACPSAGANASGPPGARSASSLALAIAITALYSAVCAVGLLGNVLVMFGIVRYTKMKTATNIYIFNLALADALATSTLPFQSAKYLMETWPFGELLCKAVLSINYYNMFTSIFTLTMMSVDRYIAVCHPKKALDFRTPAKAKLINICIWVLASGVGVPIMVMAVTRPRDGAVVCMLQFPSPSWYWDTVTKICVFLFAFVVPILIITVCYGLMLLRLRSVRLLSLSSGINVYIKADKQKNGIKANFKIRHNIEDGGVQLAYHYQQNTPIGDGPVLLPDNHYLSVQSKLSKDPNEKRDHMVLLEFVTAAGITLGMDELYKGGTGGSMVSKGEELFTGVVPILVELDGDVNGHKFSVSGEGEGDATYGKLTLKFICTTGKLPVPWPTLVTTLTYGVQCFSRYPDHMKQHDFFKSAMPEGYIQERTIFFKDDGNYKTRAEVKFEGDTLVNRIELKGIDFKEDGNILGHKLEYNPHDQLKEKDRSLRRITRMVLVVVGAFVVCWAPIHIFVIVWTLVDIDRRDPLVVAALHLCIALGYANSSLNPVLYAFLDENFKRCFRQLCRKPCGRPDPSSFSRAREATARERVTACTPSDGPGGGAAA

C[C@@H](NC(=O)[C@@H](N)Cc1ccc(O)cc1)C(=O)NCC(=O)N(C)[C@@H](Cc1ccccc1)C(=O)NCCO [DAMGO]
μLight ΔF/F max (%) [1]: 50.5±1.95%
Normalized ΔF/F of κLight1.3 [2]: 0.17 ± 0.03
μLight % bound at 10 μM [3]: 79±3%

CC1(C)SSC(C)(C)[C@@H](NC(=O)[C@@H](N)Cc2ccc(O)cc2)C(=O)NCC(=O)N[C@@H](Cc2ccccc2)C(=O)N[C@H]1C(=O)O [DPDPE]
Normalized ΔF/F of κLight1.3 [2]: 0.19 ± 0.04
κLight ΔF/F max (%) [2]: 20.5±1.67%

CC(C)[C@H](NC(=O)[C@H](CC(=O)O)NC(=O)[C@H](Cc1ccccc1)NC(=O)[C@@H](C)NC(=O)[C@@H](N)Cc1ccc(O)cc1)C(=O)N[C@H](C(=O)NCC(N)=O)C(C)C [Deltorphin I]
Normalized ΔF/F of κLight1.3 [2]: 0.26 ± 0.02

CC[C@H](C)[C@H](NC(=O)[C@H](CCCNC(=N)N)NC(=O)[C@H](CCCNC(=N)N)NC(=O)[C@H](CC(C)C)NC(=O)[C@H](Cc1ccccc1)NC(=O)CNC(=O)CNC(=O)[C@@H](N)Cc1ccc(O)cc1)C(=O)O [DynA8, dynorphin A1-8]
Normalized ΔF/F of κLight1.3 [2]: 0.61 ± 0.04
IC50 [3]: 48 ± 2 nM
μLight % bound at 10 μM [3]: 58±2%

CC[C@H](C)[C@H](NC(=O)[C@H](CCCNC(=N)N)NC(=O)[C@H](CCCNC(=N)N)NC(=O)[C@H](CC(C)C)NC(=O)[C@H](Cc1ccccc1)NC(=O)CNC(=O)CNC(=O)[C@@H](N)Cc1ccc(O)cc1)C(=O)N[C@@H](CCCNC(=N)N)C(=O)N1CCC[C@H]1C(=O)N[C@@H](CCCCN)C(=O)N[C@@H](CC(C)C)C(=O)N[C@@H](CCCCN)C(=O)O [DynA13, dynorphin A1-13]
EC50 [4]: 562 nM
EC50 [5]: 35.4 nM
EC50 [2]: 0.0898 nM
EC50 [6]: 19.2 nM

CC(C)C[C@H](NC(=O)[C@H](Cc1ccccc1)NC(=O)CNC(=O)CNC(=O)[C@@H](N)Cc1ccc(O)cc1)C(=O)O [LE, Leu-enkephalin]
Normalized ΔF/F of κLight1.3 [2]: 0.24 ± 0.02

CSCC[C@H](NC(=O)[C@H](Cc1ccccc1)NC(=O)CNC(=O)CNC(=O)[C@@H](N)Cc1ccc(O)cc1)C(=O)O [ME, met-enkephalin]
IC50 [7]: 130 ± 3 nM
EC50 [5]: 9650 nM
Normalized ΔF/F of κLight1.3 [2]: 0.18 ± 0.005
EC50 [2]: 6640 nM
EC50 [6]: 52100 nM

CN(C(=O)/C=C/c1ccoc1)[C@@H]1CC[C@@]2(O)[C@H]3Cc4ccc(O)c5c4[C@@]2(CCN3CC2CC2)[C@H]1O5 [Nalfurafine, nalfurafine]
Normalized ΔF/F of κLight1.3 [2]: 1.91 ± 0.09

Oc1ccc2c3c1O[C@H]1c4[nH]c5c(c4C[C@@]4(O)[C@@H](C2)N(CC2CC2)CC[C@]314)C[C@@]1(O)[C@H]2Cc3ccc(O)c4c3[C@@]1(CCN2CC1CC1)[C@H]5O4 [Nor-BNI, nor-binaltorphimine]
peak ΔF/F of κLight1.3a to 15 electrical stimuli in presence of antagonist [8]: 1.57% ± 1.2
pA2 at κLight1.3 [9]: 8.28

COc1ccc2c3c1O[C@H]1C(=O)CC[C@@]4(O)[C@@H](C2)N(C)CC[C@]314 [Oxycodone, oxycodone]
µLight fluorescence response [1]: suppressed
μLight ΔF/F max (%) [1]: -12.8±2.78%
Normalized ΔF/F of κLight1.3 [2]: 0.16 ± 0.04
μLight % bound at 10 μM [3]: 32±3%

C=CCN1C[C@H](C)N([C@@H](c2ccccc2)c2ccc(C(=O)N(CC)CC)cc2)C[C@H]1C [SNC162]
z-score peak of δLight ([10]; ARC, SNC162 2.25 mg per kg): 2.4 ± 1.0
z-score peak of δLight ([10]; ARC, SNC162 5 mg per kg): 7.28 ± 2.4
z-score peak of δLight ([10]; NAc, SNC162 5 mg per kg): 7.45 ± 2.20
peak z-score of δLight0 ([11]; ARC (panel j)): 0.77 ± 0.5%
peak z-score of δLight0 ([11]; ARC as printed (panel l)): −0.61 ± 0.4%
μLight ΔF/F max (%) [1]: 2.9±1.69%
EC50 [1]: 87.3 nM
Normalized ΔF/F of κLight1.3 [2]: 0.009 ± 0.02
κLight ΔF/F max (%) [2]: 12.2±2.39%
EC50 [2]: 8280 nM

C=CCN1CC[C@]23c4c5ccc(O)c4O[C@H]2C(=O)CC[C@@]3(O)[C@H]1C5 [naloxone]
δLight ΔF/F, + antagonist response [12]: 1.82 ± 2.4%

CC[C@H](C)[C@H](NC(=O)[C@H](C)NC(=O)[C@H](CC(N)=O)NC(=O)[C@H](CCCCN)NC(=O)[C@H](Cc1ccccc1)NC(=O)[C@H](CC(C)C)NC(=O)[C@@H](NC(=O)[C@@H](NC(=O)[C@H](CC(C)C)NC(=O)[C@@H]1CCCN1C(=O)[C@@H](NC(=O)[C@H](CCC(N)=O)NC(=O)[C@H](CO)NC(=O)[C@H](CCCCN)NC(=O)[C@H](CCC(=O)O)NC(=O)[C@H](CO)NC(=O)[C@@H](NC(=O)[C@H](CCSC)NC(=O)[C@H](Cc1ccccc1)NC(=O)CNC(=O)CNC(=O)[C@@H](N)Cc1ccc(O)cc1)[C@@H](C)O)[C@@H](C)O)C(C)C)[C@@H](C)O)C(=O)N[C@H](C(=O)N[C@@H](CCCCN)C(=O)N[C@@H](CC(N)=O)C(=O)N[C@@H](C)C(=O)N[C@@H](Cc1ccc(O)cc1)C(=O)N[C@@H](CCCCN)C(=O)N[C@@H](CCCCN)C(=O)NCC(=O)N[C@@H](CCC(=O)O)C(=O)O)[C@@H](C)CC [β-endorphin]
EC50 [4]: 217 nM
EC50 [5]: 2710 nM
Normalized ΔF/F of κLight1.3 [2]: 0.21 ± 0.01
μLight % bound at 10 μM [3]: 46±3%

ICI 174864
peak ΔF/F of κLight1.3a to 15 electrical stimuli in presence of antagonist [8]: 6.44% ± 0.3
antagonism of κLight activation by DynA13 [9]: did not observe apparent antagonism

YGGFLRKYP [β-neoendorphin]
IC50 [7]: 13 ± 2 nM
EC50 [1]: 6310 nM
Normalized ΔF/F of κLight1.3 [2]: 0.26 ± 0.03
EC50 [2]: 25.9 nM

YGGFLRRQF [DynB9, Dynorphin B9]
EC50 [1]: 3760 nM
Normalized ΔF/F of κLight1.3 [2]: 0.97 ± 0.03
EC50 [2]: 10 nM

YGGFMRRVGRPEWWMDYQ [BAM18]
IC50 [7]: 243 ± 2 nM
EC50 [1]: 186 nM
Normalized ΔF/F of κLight1.3 [2]: 0.48 ± 0.03
EC50 [2]: 35.6 nM
IC50 ([3]; read-out: μLight IC50): 14 ± 2 nM

YGGFMRRVGRPEWWMDYQKRYGGFL [Peptide E]
IC50 [7]: 252 ± 2 nM
μLight % bound at 10 μM [3]: 65±2%
IC50 ([3]; read-out: μLight IC50): 154 ± 2 nM
